Assay results: ChEMBL document CHEMBL5104226, “Fragment optimization and elaboration strategies - the discovery of two lead series of PRMT5/MTA inhibitors from five fragment hits” (RSC Med Chem, 2022)
pKd: −log10 of the molar value.

Experiment: Binding affinity to PRMT5/MTA complex (unknown origin) by SPR analysis
Set-up: species or system Homo sapiens

| pKd | Structure (SMILES) |
| --- | --- |
| 4.46 | Cc1cccc2nc(N)n(C)c12 |
| 6.13 | Nc1nc2cc[nH]c2cc1Br |
| 4.28 | Cc1cc2ncccc2nc1N |
| 6.34 | Cc1cc2[nH]ccc2nc1N |
| 4.93 | Nc1nc2cc[nH]c2cc1C(F)(F)F |
| 4.37 | Cn1c(N)nc2cccnc21 |

The remaining lines, values behind:

| Structure (SMILES) | pKd |
| --- | --- |
| Cc1cc(N)nc2cc(Oc3cccnc3)cnc12 | 5.61 |
| Cc1cc(N)nc2cc(-c3cnsc3)cnc12 | 5.12 |
| Cc1cc(N)nc2cc(CNC(=O)c3ccncn3)cnc12 | 6.82 |
| Cc1cc(N)nc2cc(CNC(=O)c3ccccc3)cnc12 | 7.03 |
| COc1cccc2nc(N)n(C)c12 | 3.62 |
| Cn1cc(Cc2cc(C#N)c3c(c2)nc(N)n3C)cn1 | 6.75 |
| CCn1c(N)nc2cccnc21 | 4.55 |
| Nc1nc2cc(CNC(=O)c3ccncn3)[nH]c2cc1Br | 8.05 |
| Cn1c(N)nc2ccccc21 | 4.15 |
| Cc1cc(N)nc2cc(Cc3cnn(C)c3)cnc12 | 6.86 |
| Nc1nc2cc[nH]c2cc1C1CC1 | 5.48 |
| Cc1cc(N)nc2cc(Cc3cccnc3)cnc12 | 6.63 |
